Source: patent publication US20220324912A1, “THERAPEUTIC PEPTIDES” (COHBAR, INC., priority 2019, published 2022)
Non-standard residues stand in square brackets, D forms with d. Residues, ends and D or L forms follow the SMILES beside them. No end group written: not given here.

Legend:
[1] = tested on: C2C12 cells; assay: Cellular ROS Levels Induced by TBHP in C2C12 Cells (DCFDA); type: cell-based, mouse; conditions: sulforaphane 10 µM
Method: The protective or synergistic effect of the peptides on cellular levels of reactive oxygen species (ROS) induced by oxidative stress can be assessed using an assay of ROS in cultured cells such as mouse myoblasts exposed to a suitable oxidative stress. Peptides were initially prepared as 10 mM stock in DMSO, diluted to 1 mM in H2O, and added at a final concentration of 10 μM (0.1% DMSO). […] TBHP was used at final concentration of 100 μM. Sulforaphane at final concentration of 10 µM was used as a protective control against TBHP induced ROS production. […] C2C12 cells were grown in DMEM supplemented with 20% FBS with 100 IU/ml penicillin and 100 μg/ml streptomycin. […] C2C12 cells were seeded at 7,500 cells per well on 96-well plates. […] After 18-20 hours of incubation the cells were loaded with DCFDA for 45 min. TBHP at 100 μM was then added to the appropriate wells for 1 hour. ROS activity was determined using a DCFDA Cellular ROS Detection Assay kit (Abcam, Cambridge, Mass.) according to the manufacturer's instructions. Fluorescence in each sample well on the plate was measured using a Cytation 3 plate reader at Ex/Em=485/535 nm (BioTek, Winooski, Vt.). Activity was calculated relative to TBHP control. The relative standard deviation of the sulforaphane control was <20%. The ROS level produced by the sulforaphane control in the presence of TBHP was 52% of the TBHP control.

[2] = Stability in Mouse Plasma; type: in vitro ADME; conditions: pooled mouse plasma, 37° C., peptides 100 DM; for remaining at 0.25 h, 100 DM: 15 min; for remaining at 0.5 h, 100 DM: 30 min; for remaining at 1 h, 100 DM: 60 min; for remaining at 2 h, 100 DM: 120 min; for remaining at 3 h, 100 DM: 180 min
Method: Peptides (100 DM) were incubated in pooled mouse plasma at 37° C. and samples were removed and immediately analyzed for the concentration of intact peptide by LC/MS/MS over the course of 3 hours. The percent of peptide remaining in plasma at each time point was calculated relative to the initial peak area (Table 9).

[3] = tested on: 3T3-L1 adipocytes; assay: Free Fatty Acid Levels in 3T3-L1 Adipocytes (Example 4, 25 μM); type: cell-based, mouse; conditions: for Free fatty acid levels, Percent of Control Value (percent isoproterenol control): peptides 25 μM, 20-22 hours then 3 hours with isoproterenol 1 nM, 3T3-L1 adipocytes
Method: Following 12-15 days' differentiation, test peptides were added to a final concentration of 25 μM and incubated for 20-22 hours in Adipocyte Maintenance Medium. After 20-22 hours, isoproterenol (1 nM) was added to all wells except untreated controls and test peptides were replenished. Cells were incubated for a further 3 hours in Assay Buffer (Zen-Bio). Free fatty acid concentrations in the media were determined using a Free Fatty Acid Assay Kit (Zen-Bio) according to the manufacturer's instructions using a plate reader (540 nm). Absorbance values were corrected for untreated background and expressed relative to isoproterenol treated cells. Treatment with isoproterenol (1 nM) alone was used as the free fatty acid level stimulatory control. The relative standard deviation of the isoproterenol control was <10%. […] Free fatty acid levels for insulin (100 nM) treatment were <5% of the isoproterenol control value.

[4] = tested on: DIO mice; assay: Effects in Diet Induced Obese (DIO) mice, once daily subcutaneous, 10 days (Example 9); type: in vivo, mouse; conditions: for Difference from Vehicle Control: Decrease from Baseline in Blood Glucose / Difference from Vehicle Control: Decrease from Baseline in Body Weight / Difference from Vehicle Control: Decrease from Baseline in Fat Mass: male DIO mice
Method: C57BL/6 mice were maintained on a high fat diet for 18 weeks to develop diet induced obesity. Animals were randomized to treatment groups based on blood glucose levels and body weight. The peptide of SEQ ID NO: 9 was administered to two groups of male DIO mice once daily by subcutaneous injection at doses of 5.0 or 15 mg/kg/dose for 10 days (N=8 animals per treatment group). An additional group of male DIO mice (n=8) received vehicle (water) alone. Body weight, blood glucose levels and food intake were monitored. Body mass distribution (fat vs lean) was determined by quantitative whole body NMR prior to dosing and at the end of dosing.

[5] = tested on: 3T3-L1 mouse adipocytes; assay: Free Fatty Acid Levels in 3T3-L1 Mouse Adipocytes (Example 12, 10 μM); type: cell-based; conditions: insulin 100 nM, Example 12
Method: The effect of the peptides on fatty acid metabolism can be assessed using an assay of free fatty acid levels in cultured cells such as mouse adipocytes. Peptides were initially prepared as 10 mM stock in DMSO, diluted to 1 mM in H2O, and used at a final concentration of 10 μM (0.1% DMSO). […] After 20-22 hours, 1 nM isoproterenol was added to all wells except untreated controls and test peptides were replenished. Insulin at 100 nM was added to control wells. […] Free fatty acid concentrations in the media were determined using a Free Fatty Acid Assay kit (Zen-Bio) according to the manufacturer's instructions using a Cytation 3 plate reader at 540 nm (BioTek, Winooski, Vt.). Absorbance values were corrected for untreated background and expressed relative to isoproterenol treated cells. Treatment with isoproterenol (1 nM) alone was used as the free fatty acid level stimulatory control. The relative standard deviation of the isoproterenol control was <10%. […] Free fatty acid levels for insulin (100 nM) treatment were <5% of the isoproterenol control value.

In the case of C[S+]([O-])CCCCN=C=S (centres unmarked) [sulforaphane, reference compound], the “ROS level in the presence of TBHP, % of the TBHP control” value [1] is reported as 52%.
With CC[C@H](C)[C@H](NC(=O)[C@@H](C)NC(=O)[C@H](CO)NC(=O)CNC(=O)[C@@H]1CCCN1C(=O)[C@H](CC(C)C)NC(=O)[C@@H](N)CCCNC(=N)N)C(=O)N[C@@H](CC(C)C)C(=O)N[C@H](C(=O)N[C@@H](CC(N)=O)C(=O)N1CCC[C@H]1C(=O)N[C@H](C(=O)N[C@@H](CC(C)C)C(=O)NCC(=O)N[C@@H](Cc1c[nH]c2ccccc12)C(=O)N[C@H](C(=O)O)C(C)C)C(C)C)[C@@H](C)O [compound 10] (H-RLPGS[dA]ILTNPVLGWV-OH) the “% Remaining at 0 min” value [2] was 100%, the remaining at 0.25 h, 100 DM [2] was 76.5% and the remaining at 0.5 h, 100 DM [2] was 58.1%. For the same molecule, the remaining at 1 h, 100 DM [2] was 44.4%, the remaining at 2 h, 100 DM [2] was 18.1% and the remaining at 3 h, 100 DM [2] was 8.9%.
With “23 ([dA]FQKTHNLNQHNHPQ[dA]N) [compound 23]” the “Free fatty acid levels, Percent of Control Value (percent isoproterenol control)” value (“Free fatty acid levels, Percent” below) [3] was 114%.
For “RLPGS(dA)ILTNPVLGWVWV (RLPGS[dA]ILTNPVLGWVWV) [SEQ ID NO: 9]”, the “Difference from Vehicle Control: Decrease from Baseline in Blood Glucose” value ([4]; 5.0 mg/kg/dose) was 7.0 mg/dL, the “Difference from Vehicle Control: Decrease from Baseline in Body Weight” value ([4]; 5.0 mg/kg/dose) was 1.79% and the “Difference from Vehicle Control: Decrease from Baseline in Fat Mass” value ([4]; 5.0 mg/kg/dose) was 0.56 g. For the same molecule, the “Difference from Vehicle Control: Decrease from Baseline in Blood Glucose” value ([4]; 15.0 mg/kg/dose) was 18.0 mg/dL, the “Difference from Vehicle Control: Decrease from Baseline in Body Weight” value ([4]; 15.0 mg/kg/dose) was 1.96% and the “Difference from Vehicle Control: Decrease from Baseline in Fat Mass” value ([4]; 15.0 mg/kg/dose) was 0.86 g. For the same molecule, the “Body weight loss compared to vehicle (in words)” value ([4]; 5.0 or 15 mg/kg/dose) was “greater body weight loss”, the “Decrease in fat mass from baseline compared to vehicle (in words)” value ([4]; 5.0 or 15 mg/kg/dose) was “greater decrease in fat mass” and the “Reduction in blood glucose compared to vehicle (in words)” value ([4]; 5.0 or 15 mg/kg/dose) was “greater reduction in blood glucose”.
For “22 ([dA]FQKTHNLNQHNHPQPNY) [compound 22]”, the “Free fatty acid levels, Percent” value [3] was 135%.
For 27 (VVKGPLSEGGHPWGREG) [compound 27], the “Free fatty acid levels, Percent” value [3] was 89%.
With insulin [reference compound] the “Free fatty acid levels, % of isoproterenol control value” ([3]; insulin 100 nM, Example 4) was less than 5% and the “Free fatty acid levels, % of isoproterenol control value” [5] was less than 5%.
In the case of 4 (LAVRRTARAI) [compound 4], the “Free fatty acid levels, Percent” value [3] is reported as 102%.
In the case of CC[C@H](C)[C@H](NC(=O)[C@@H](C)NC(=O)[C@H](CO)NC(=O)CNC(=O)[C@@H]1CCCN1C(=O)[C@H](CC(C)C)NC(=O)[C@@H](N)CCCNC(=N)N)C(=O)N[C@@H](CC(C)C)C(=O)N[C@H](C(=O)N[C@@H](CC(N)=O)C(=O)N1CCC[C@H]1C(=O)N[C@H](C(=O)N[C@@H](CC(C)C)C(=O)NCC(=O)N[C@@H](Cc1c[nH]c2ccccc12)C(=O)N[C@H](C(=O)N[C@@H](Cc1c[nH]c2ccccc12)C(=O)N[C@H](C(=O)O)C(C)C)C(C)C)C(C)C)[C@@H](C)O [compound 9] (H-RLPGS[dA]ILTNPVLGWVWV-OH), the “% Remaining at 0 min” value [2] is reported as 100%, the remaining at 0.25 h, 100 DM [2] is reported as 90.5% and the remaining at 0.5 h, 100 DM [2] is reported as 81%. The remaining at 1 h, 100 DM [2] was 72%, the remaining at 2 h, 100 DM [2] was 56.5% and the remaining at 3 h, 100 DM [2] was 46.6%.
For 26 (VVKGPLSEGGHPWGREGI) [compound 26], the “Free fatty acid levels, Percent” value [3] was 129%.
